# Source: patent US20240109930A1, “TRIAZOLYL-METHYL SUBSTITUTED ALPHA-D-GALACTOPYRANOSIDE DERIVATIVES” (Idorsia Pharmaceuticals Ltd, priority 2021, published 2024)
# Legend:
# [1] = biological target: human Gal-3 (hGal-3) (Homo sapiens (Human), UniProt P17931); assay: Competitive binding assay: biotinylated hGal-3 binding to microplate-adsorbed asialofetuin (ASF); conditions: IC50 values from several measurements given as geomean
# In short: (§1)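 Biotinylated hGal-3 or hGal-1 (preferably cysteine-free Cys→Ser mutant), 300–1000 ng/mL, competes with compound for ASF-coated wells for 3 h at 4 °C. Bound lectin detected with streptavidin-peroxidase (80 ng/mL, 1 h, 4 °C) and ABTS by absorbance; IC50 reported as geomean of several runs.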
# [2] = biological target: human Gal-1 (hGal-1) (Homo sapiens, UniProt P09382, C131S/C17S/C43S/C61S/C89S); assay: Competitive binding assay: biotinylated hGal-1 binding to microplate-adsorbed asialofetuin (ASF); conditions: IC50 values from several measurements given as geomean
# In short: as §1
# human Gal-3 (hGal-3), sequence (P17931 whole entry): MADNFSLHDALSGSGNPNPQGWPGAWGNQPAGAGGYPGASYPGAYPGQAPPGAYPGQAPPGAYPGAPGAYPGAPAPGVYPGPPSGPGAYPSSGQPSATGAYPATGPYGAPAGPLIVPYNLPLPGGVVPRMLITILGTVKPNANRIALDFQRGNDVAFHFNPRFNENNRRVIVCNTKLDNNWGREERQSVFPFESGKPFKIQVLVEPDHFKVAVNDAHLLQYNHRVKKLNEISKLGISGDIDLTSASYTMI
Compound,IC50 [1] [nM],IC50 [2] [nM]
"CO[C@@H]1[C@@H](n2cc(-c3ccc(Cl)c(F)c3F)nn2)[C@@H](O)[C@@H](CO)O[C@@H]1Cc1cn(C2(C(F)(F)F)CCC(F)(F)CC2)nn1 [Ex 2.1.71., (2R,3R,4S,5R,6R)-4-(4-(4-chloro-2,3-difluorophenyl)-1H-1,2,3-triazol-1-yl)-6-((1-(4,4-difluoro-1-(trifluoromethyl)cyclohexyl)-1H-1,2,3-triazol-4-yl)methyl)-2-(hydroxymethyl)-5-methoxytetrahydro-2H-pyran-3-ol]",50,670
"CO[C@@H]1[C@@H](n2cc(-c3ccc(F)c(F)c3F)nn2)[C@@H](O)[C@@H](CO)O[C@@H]1Cc1cn(C2(C(F)(F)F)CCC2)nn1 [Ex 3.1.55., (2R,3R,4S,5R,6R)-2-(hydroxymethyl)-5-methoxy-6-((1-(1-(trifluoromethyl)cyclobutyl)-1H-1,2,3-triazol-4-yl)methyl)-4-(4-(2,3,4-trifluorophenyl)-1H-1,2,3-triazol-1-yl)tetrahydro-2H-pyran-3-ol]",40,180
CO[C@@H]1[C@@H](n2cc(-c3ccc(Br)c(F)c3F)nn2)[C@@H](O)[C@@H](CO)O[C@@H]1Cn1cc(C2(O)CCCC2)nn1 [Ex 4.2.33.],100,4110
CO[C@@H]1[C@@H](n2cc(-c3ccc(Cl)c(F)c3F)nn2)[C@@H](O)[C@@H](CO)O[C@@H]1Cc1cn(C2(C)CCC2)nn1 [Ex 2.1.13.],20,690
CO[C@@H]1[C@@H](n2cc(-c3ccc(Cl)c(F)c3F)nn2)[C@@H](O)[C@@H](CO)O[C@@H]1Cc1cn(C2(C)CC(F)(F)C2)nn1 [Ex 2.1.15.],50,1710
CO[C@@H]1[C@@H](n2cc(-c3ccc(Cl)c(F)c3F)nn2)[C@@H](O)[C@@H](CO)O[C@@H]1Cn1cc([C@H]2C[C@@H](N)C2)nn1 [Ex 2.2.87.],120,7150
CO[C@@H]1[C@@H](n2cc(-c3ccc(Cl)c(F)c3F)nn2)[C@@H](O)[C@@H](CO)O[C@@H]1Cc1cn(C2(C(F)(F)F)CCC2)nn1 [Ex 2.1.55.],20,620
CO[C@@H]1[C@@H](n2cc(-c3ccc(C)c(F)c3F)nn2)[C@@H](O)[C@@H](CO)O[C@@H]1Cc1cn([C@]2(C)C[C@H](O)C2)nn1 [Ex 1.1.19.],20,670
"CO[C@@H]1[C@@H](n2cc(-c3ccc(Cl)c(F)c3F)nn2)[C@@H](O)[C@@H](CO)O[C@@H]1Cc1cn(C2CCCCC2(F)F)nn1 (single isomer, unassigned) [Example 2.1.80.A]",20,1020
COCC1(n2cc(C[C@H]3O[C@H](CO)[C@H](O)[C@H](n4cc(-c5ccc(Cl)c(F)c5F)nn4)[C@H]3OC)nn2)COC1 [Ex 2.1.21.],50,900
CO[C@@H]1[C@@H](n2cc(-c3ccc(Cl)c(F)c3F)nn2)[C@@H](O)[C@@H](CO)O[C@@H]1Cc1cn(C23CC(C(F)(F)F)(C2)C3)nn1 [Ex 2.1.24.],80,6700
CO[C@@H]1[C@@H](n2cc(-c3ccc(Cl)c(F)c3F)nn2)[C@@H](O)[C@@H](CO)O[C@@H]1Cn1cc(C2CC(F)(F)C2)nn1 [Ex 2.2.83.],160,8800
CO[C@@H]1[C@@H](n2cc(-c3ccc(C)c(F)c3F)nn2)[C@@H](O)[C@@H](CO)O[C@@H]1Cc1cn(C2(CO)CC(F)(F)C2)nn1 [Ex 1.1.18.],50,1470
CO[C@@H]1[C@@H](n2cc(-c3ccc(Br)c(F)c3F)nn2)[C@@H](O)[C@@H](CO)O[C@@H]1Cc1cn(C2(C)COC2)nn1 [Ex 4.1.6.],40,1460
CO[C@@H]1[C@@H](n2cc(-c3ccc(Cl)c(F)c3F)nn2)[C@@H](O)[C@@H](CO)O[C@@H]1Cc1cn([C@]2(C)C[C@H](O)C2)nn1 [Ex 2.1.19.],40,630
CO[C@@H]1[C@@H](n2cc(-c3ccc(Br)c(F)c3F)nn2)[C@@H](O)[C@@H](CO)O[C@@H]1Cc1cn(C2(C(F)F)CC2)nn1 [Ex 4.1.51.],30,1290
"CO[C@@H]1[C@@H](n2cc(-c3ccc(Cl)c(F)c3F)nn2)[C@@H](O)[C@@H](CO)O[C@@H]1Cc1cn([C@@H]2COC[C@@H]2F)nn1 (single isomer, unassigned) [Example 2.1.74.A, (2R,3R,4S,5R,6R)-4-(4-(4-chloro-2,3-difluorophenyl)-1H-1,2,3-triazol-1-yl)-6-((1-((3R*,4R*)-4-fluorotetrahydrofuran-3-yl)-1H-1,2,3-triazol-4-yl)methyl)-2-(hydroxymethyl)-5-methoxytetrahydro-2H-pyran-3-ol]",10,450
COC1=C(N2CC(c3ccc(Cl)c(F)c3F)NN2)C(O)=C(CO)O[C@@H]1Cn1cc(C23CCC(NC(=O)OC(C)(C)C)(CC2)CC3)nn1 (stereo partly drawn) [Ex 2.2.37.],70,13100
CO[C@@H]1[C@@H](n2cc(-c3ccc(C)c(F)c3F)nn2)[C@@H](O)[C@@H](CO)O[C@@H]1Cn1cc(C2CCCC2)nn1 [Ex 1.2.32.],60,5130
CO[C@@H]1[C@@H](n2cc(-c3ccc(F)c(F)c3F)nn2)[C@@H](O)[C@@H](CO)O[C@@H]1Cc1cn(C23CCOC(C)(C2)C3)nn1 [Ex 3.1.62.],60,810

Compound,IC50 [1] [nM],IC50 [2] [nM]
COCC1(n2cc(C[C@H]3O[C@H](CO)[C@H](O)[C@H](n4cc(-c5ccc(F)c(F)c5F)nn4)[C@H]3OC)nn2)COC1 [Ex 3.1.21.],60,770
CO[C@@H]1[C@@H](n2cc(-c3ccc(C)c(F)c3F)nn2)[C@@H](O)[C@@H](CO)O[C@@H]1Cc1cn([C@@H]2CCC[C@H]2O)nn1 [Ex 1.1.2.],40,6460
CO[C@@H]1[C@@H](n2cc(-c3ccc(F)c(F)c3F)nn2)[C@@H](O)[C@@H](CO)O[C@@H]1Cc1cn(C2(CF)COC2)nn1 [Ex 3.1.52.],30,240
CO[C@@H]1[C@@H](n2cc(-c3ccc(Cl)c(F)c3F)nn2)[C@@H](O)[C@@H](CO)O[C@@H]1Cn1cc(C2(O)CC(F)(F)C2)nn1 [Ex 2.2.85.],170,5400
CO[C@@H]1[C@@H](n2cc(-c3ccc(F)c(F)c3F)nn2)[C@@H](O)[C@@H](CO)O[C@@H]1Cc1cn(C2(C)CC(F)(F)C2)nn1 [Ex 3.1.15.],50,460
CO[C@@H]1[C@@H](n2cc(-c3ccc(F)c(F)c3F)nn2)[C@@H](O)[C@@H](CO)O[C@@H]1Cn1cc(C(C)(C)O)nn1 [Ex 3.2.34.],440,720
CO[C@@H]1[C@@H](n2cc(-c3ccc(Br)c(F)c3F)nn2)[C@@H](O)[C@@H](CO)O[C@@H]1Cc1cn(C(C)(C)C(F)F)nn1 [Ex 4.1.28.],50,1020
CO[C@@H]1[C@@H](n2cc(-c3ccc(C)c(F)c3F)nn2)[C@@H](O)[C@@H](CO)O[C@@H]1Cc1cn(C2(C)CCC2)nn1 [Ex 1.1.13.],30,1450
CO[C@@H]1[C@@H](n2cc(-c3ccc(C#N)c(F)c3F)nn2)[C@@H](O)[C@@H](CO)O[C@@H]1Cc1cn(C2(C)COC2)nn1 [Ex 5.1.6.],70,3990
CO[C@@H]1[C@@H](n2cc(-c3ccc(F)c(F)c3F)nn2)[C@@H](O)[C@@H](CO)O[C@@H]1Cc1cn(C23CC(C)(C2)C3)nn1 [Ex 3.1.14.],60,700
CO[C@@H]1[C@@H](n2cc(-c3ccc(C)c(F)c3F)nn2)[C@@H](O)[C@@H](CO)O[C@@H]1Cc1cn(C23CCC(N)(CC2)CC3)nn1 [Ex 1.2.39.],60,11000
CO[C@@H]1[C@@H](n2cc(-c3ccc(C)c(F)c3F)nn2)[C@@H](O)[C@@H](CO)O[C@@H]1Cc1cn(C23CC(C2)C3)nn1 [Ex 1.1.12.],50,4150
"CO[C@@H]1[C@@H](n2cc(-c3ccc(Cl)c(F)c3F)nn2)[C@@H](O)[C@@H](CO)O[C@@H]1Cc1cn(C2(C(F)F)CCOC2)nn1 (single isomer, unassigned) [Example 2.1.78.B]",20,240
"CO[C@@H]1[C@@H](n2cc(-c3ccc(Cl)c(F)c3F)nn2)[C@@H](O)[C@@H](CO)O[C@@H]1Cc1cn(C2CCOCC2(F)F)nn1 (single isomer, unassigned) [Example 2.1.89.B]",20,870
"CO[C@@H]1[C@@H](n2cc(-c3ccc(Br)c(F)c3F)nn2)[C@@H](O)[C@@H](CO)O[C@@H]1Cc1cn(C23CCOC(C)(C2)C3)nn1 [Ex 4.1.62., (2R,3R,4S,5R,6R)-4-(4-(4-bromo-2,3-difluorophenyl)-1H-1,2,3-triazol-1-yl)-2-(hydroxymethyl)-5-methoxy-6-((1-(1-methyl-2-oxabicyclo[3.1.1]heptan-5-yl)-1H-1,2,3-triazol-4-yl)methyl)tetrahydro-2H-pyran-3-ol]",20,2030
CO[C@@H]1[C@@H](n2cc(-c3ccc(C)c(F)c3F)nn2)[C@@H](O)[C@@H](CO)O[C@@H]1Cc1cn(C2(C)CC(F)(F)C2)nn1 [Ex 1.1.15.],30,1760
CO[C@@H]1[C@@H](n2cc(-c3ccc(Cl)c(F)c3F)nn2)[C@@H](O)[C@@H](CO)O[C@@H]1Cc1cn(C2(CF)CC2)nn1 [Ex 2.1.46.],30,1070
CO[C@@H]1[C@@H](n2cc(-c3ccc(C)c(F)c3F)nn2)[C@@H](O)[C@@H](CO)O[C@@H]1Cc1cn(C23CC(C(F)(F)F)(C2)C3)nn1 [Ex 1.1.24.],80,5040
CO[C@@H]1[C@@H](n2cc(-c3ccc(F)c(F)c3F)nn2)[C@@H](O)[C@@H](CO)O[C@@H]1Cc1cn([C@]2(C)C[C@@H](O)C2)nn1 [Ex 3.1.27.],30,140
